The nature of this data set: dermal toxicity. Conditions: species and method not stated. Format: in vivo.

Compound `C1CCN([P+](N2CCCCC2)(N2CCCCC2)N2CCCCC2)CC1.[Cl-]` [tetrakis(piperidino)phosphonium chloride] came in with a dermal toxicity of roughly 200 mg/kg body weight. As to `C1CCN([P+](N2CCCC2)(N2CCCC2)N2CCCC2)C1.[Cl-]` [tetrakis(pyrrolidino)phosphonium chloride], the dermal toxicity was roughly 390 mg/kg body weight.

`CCN(CC)[P+](N(CC)CC)(N(CC)CC)N(CC)CC.[Br-]` [tetrakis(diethylamino)phosphonium bromide, reference compound]: the dermal toxicity is less than 50 mg/kg body weight.

Values taken from patent US6407029B1, “Mixtures comprising tetrakis(pyrrolidino/piperdino)phosphonium salts” (priority 1999, dated 2002).
